# Measured values: patent US9090600B2, “Fungicidal 4-substituted-3-{phenyl[(heterocyclylmethoxy)imino]methyl}-1,2,4-oxadizol-5(4H)-one derivatives” (BAYER INTELLECTUAL PROPERTY GMBH, priority 2011, dated 2015)
# Marks after values point to notes of the source that are not given here.
# Assays:
# Plasmopara viticola = assay: Plasmopara test (grapevines)/preventive; format: in vivo; details: preventive spray, 10 ppm of active ingredient, evaluated 6 days after inoculation
# Method: Solvent: 24.5 parts by weight of acetone • 24.5 parts by weight of dimethylacetamide
# Emulsifier: 1 part by weight of alkylaryl polyglycol ether
# To produce a suitable preparation of active compound, 1 part by weight of active compound is mixed with the stated amounts of solvent and emulsifier, and the concentrate is diluted with water to the desired concentration.
# To test for preventive activity, young plants are sprayed with the preparation of active compound at the stated rate of application. After the spray coating has dried on, the plants are inoculated with an aqueous spore suspension of Plasmopara viticola and then remain for 1 day in an incubation cabinet at approximately 20° C. and a relative atmospheric humidity of 100%. The plant is subsequently placed for 4 days in a greenhouse at approximately 21° C. and a relative atmospheric humidity of approximately 90%. The plants are then misted and placed for 1 day in an incubation cabinet.
# The test is evaluated 6 days after the inoculation. 0% means an efficacy which corresponds to that of the untreated control, while an efficacy of 100% means that no disease is observed.
# Phytophthora infestans = format: in vivo; details: tomato plants, spray, 500 ppm, grading 5 days after contamination
# [1] = pH 2.7
Compound,Eff. % (Plasmopara viticola),Eff. % (Phytophthora infestans),LogP [1]
CC(Oc1cccc(Cl)c1)C(=O)Nc1nc(CO/N=C(/c2ccccc2)c2noc(=O)n2C)cs1 (stereo not drawn) [Example 321],82%,97%,4.1 [a]
Cc1ccc(C)c(C(=O)Nc2cccc(CO/N=C(/c3ccccc3)c3noc(=O)n3C)n2)c1 [Example 327],95%,100%,4.06 [a]
Cn1c(/C(=N\OCc2cccc(NC(=O)Cc3ccccc3Br)n2)c2ccccc2)noc1=O [Example 335],,99%,3.85 [a]
Cc1ccc(C)c(C(=O)Nc2nc(CO/N=C(/c3ccccc3)c3noc(=O)n3C)cs2)c1 [Example 336],91%,99%,3.94 [a]
CCCC(C)COC(=O)Nc1cccc(CO/N=C(/c2ccccc2)c2noc(=O)n2C)n1 (stereo not drawn) [Example 337],,99%,4.83 [a]
Cc1ccc(C(=O)Nc2cccc(CO/N=C(/c3ccccc3)c3noc(=O)n3C)n2)o1 [Example 345],,99%,3.46 [a]
Cn1c(/C(=N\OCc2cccc(NC(=O)CCc3ccc(Cl)cc3)n2)c2ccccc2)noc1=O [Example 346],,97%,4.17 [a]
Cn1c(/C(=N\OCc2cccc(NC(=O)C(F)(F)C(F)(F)C(F)(F)F)n2)c2ccccc2)noc1=O [Example 348],,100%,4.17 [a]
CCC(C)COC(=O)Nc1cccc(CO/N=C(/c2ccccc2)c2noc(=O)n2C)n1 (stereo not drawn) [Example 350],,98%,4.44 [a]
Cn1c(/C(=N\OCc2cccc(NC(=O)c3ccc(Oc4ccccc4)cc3)n2)c2ccccc2)noc1=O [Example 357],,92%,4.58 [a]
CCCCC(=O)Nc1cccc(CO/N=C(/c2cccc(OC)c2)c2noc(=O)n2C)n1 [Example 358],,100%,3.55 [a]
CCCCOC(=O)Nc1cccc(CO/N=C(/c2cccc(OC)c2)c2noc(=O)n2C)n1 [Example 361],,90%,4.06 [a]
COc1cccc(/C(=N/OCc2cccc(NC(=O)CC(C)C)n2)c2noc(=O)n2C)c1 [Example 362],,71%,3.46 [a]
C=CCCOC(=O)Nc1cccc(CO/N=C(/c2ccccc2)c2noc(=O)n2C)n1 [Example 363],,99%,3.71 [a]
CC(=O)OC(C)(C)C(=O)Nc1cccc(CO/N=C(/c2ccccc2)c2noc(=O)n2C)n1 [Example 367],,100%,3.15 [a]
Cc1ccc(CCOC(=O)Nc2cccc(CO/N=C(/c3ccccc3)c3noc(=O)n3C)n2)cc1 [Example 369],,70%,4.53 [a]
Cn1c(/C(=N\OCc2cccc(NC(=O)OCC(C)(C)C)n2)c2ccccc2)noc1=O [Example 372],,100%,4.36 [a]
Cn1c(/C(=N\OCc2cccc(NC(=O)CCCCCBr)n2)c2ccccc2)noc1=O [Example 374],,100%,3.85 [a]
Cc1ccc(CC(=O)Nc2cccc(CO/N=C(/c3ccccc3)c3noc(=O)n3C)n2)cc1 [Example 375],,97%,3.85 [a]
Cn1c(/C(=N\OCc2cccc(NC(=O)CCCc3ccccc3)n2)c2ccccc2)noc1=O [Example 377],,99%,4.04 [a]
Cn1c(/C(=N\OCc2cccc(NC(=O)Cc3ccc4ccccc4c3)n2)c2ccccc2)noc1=O [Example 381],,75%,4.12 [a]
Cc1cccc(/C(=N/OCc2cccc(NC(=O)C(C)(C)C)n2)c2noc(=O)n2C)c1 [Example 387],,100%,3.85 [a]
Cn1c(/C(=N\OCc2cccc(NC(=O)C3CCCC3)n2)c2ccccc2)noc1=O [Example 388],,100%,3.62 [a]
C=CCCOC(=O)Nc1nc(CO/N=C(/c2ccccc2)c2noc(=O)n2C)cs1 [Example 394],,90%,3.44 [a]
COc1ccc(C(=NOCc2cccc(NC(=O)OC(C)(C)C)n2)c2noc(=O)n2C)cc1 [Example 396],,73%,3.96 [a]
CCn1c(/C(=N\OCc2cccc(NC(=O)CCc3ccccc3)n2)c2ccccc2)noc1=O [Example 403],,100%,4.01 [a]
COc1cccc(C(=NOCc2cccc(NC(=O)C(C)(C)C)n2)c2noc(=O)n2C)c1 [Example 407],,95%,3.55 [a]
